In US4401594A, “L-Argininal derivatives and a method of manufacturing the same” (Nippon Kayaku Kabushiki Kaisha, priority 1980, dated 1983):
Structures can show the parent of a compound that is named as a salt. Where a SMILES comes first, the peptide text is derived from it. [ ]: non-standard residue; d: D form. The star is where a group is joined. pGlu = O=C1CC[C@@H](C(=O)O)N1; Cbz = O=C(OCc1ccccc1)*

biological target: T1, plasmin (Homo sapiens, UniProt P00747); experiment: Determination of Anti-Plasmin Activity; format: biochemical; settings: fibrinogen substrate, plasminogen from human serum + streptokinase, pH 7.2, 37° C., 20 minutes; read-out: IC50 Plasmin (converted)
T1 construct: fibrinogen substrate
Protocol: The inhibitory activity of the compounds on each protease was determined as follows:
Buffer solution: pH 7.2, 0.01 M phosphate buffer solution.
Substrate: 2 g of fibrinogen (Armour Pharm. Co., U.S.A.) were dissolved in 100 ml of the phosphate buffer solution under heat.
Enzyme: The human serum was mixed with 20 times as much water, and after acetic acid had been added into the mixture to adjust it to pH 5.2, the solution was left at room temperature for half an hour. The precipitates obtained by centrifugation at 3,000 rpm for 10 minutes was dissolved in an equal quantity of the buffer solution to that of the serum, and the resulting solution was subjected to centrigugation at 10,000 rpm for half an hour, whereby a plasminogen solution was obtained as the supernatant. A solution of streptokinase (Varidase, Lederle Lab., U.S.A.) having a concentration of 10,000 U/ml was prepared, and kept in a cold and dark place. Prior to use, it was diluted with the buffer solution into a solution having a concentration of 2,000 U/ml. The enzyme solution was adjusted prior to use so that 0.5 ml thereof might show an absorbance of about 0.4 at 280 nm after 20 minutes of reaction.
Method: 0.5 ml of the plasminogen solution, 0.3 ml of the phosphate buffer solution, 0.1 ml of the streptokinase solution, and 0.1 ml of the test sample or water were placed in a test tube (15 mm×100 mm). After the mixed solution in the test tube had been heated at 37° C. for three minutes, 2.0 ml of the fibrinogen solution were added into the solution in the test tube, and reacted therewith at 37° C. for 20 minutes. When the reaction had been completed, 1.5 ml of a 1.7 M perchloric acid solution were added into the test tube, and its contents were shaken slightly. After the test tube had been stood at room temperature for an hour, its contents were subjected to centrigugation at 3,000 rpm for 10 minutes. The absorbance (a) of the supernatant thus obtained was measured at 280 nm. The absorbance (b) of the controll solution not containing any compound of this invention was also measured.
The inhibition coefficients of the compounds of this invention on each enzyme were calculated from the absorbances (a) and (b) obtained as hereinabove described, in accordance with the following formula: [formula] These inhibition rates were obtained for various concentrations of the compounds according to this invention, and the concentration of a 50% inhibition (IC50) were calculated therefrom.

T1 sequence (P00779 27-440): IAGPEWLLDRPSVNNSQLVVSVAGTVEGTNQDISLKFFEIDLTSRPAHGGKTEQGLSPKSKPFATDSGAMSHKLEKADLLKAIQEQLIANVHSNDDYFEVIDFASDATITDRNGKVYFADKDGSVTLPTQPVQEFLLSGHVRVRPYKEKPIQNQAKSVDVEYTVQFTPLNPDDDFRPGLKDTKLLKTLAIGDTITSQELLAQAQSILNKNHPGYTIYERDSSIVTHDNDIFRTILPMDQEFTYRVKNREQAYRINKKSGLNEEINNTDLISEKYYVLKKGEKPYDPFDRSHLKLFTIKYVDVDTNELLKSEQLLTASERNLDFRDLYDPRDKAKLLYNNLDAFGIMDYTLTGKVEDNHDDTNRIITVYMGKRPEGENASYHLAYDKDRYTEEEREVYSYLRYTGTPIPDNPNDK
T1 sequence (P00747 97-810): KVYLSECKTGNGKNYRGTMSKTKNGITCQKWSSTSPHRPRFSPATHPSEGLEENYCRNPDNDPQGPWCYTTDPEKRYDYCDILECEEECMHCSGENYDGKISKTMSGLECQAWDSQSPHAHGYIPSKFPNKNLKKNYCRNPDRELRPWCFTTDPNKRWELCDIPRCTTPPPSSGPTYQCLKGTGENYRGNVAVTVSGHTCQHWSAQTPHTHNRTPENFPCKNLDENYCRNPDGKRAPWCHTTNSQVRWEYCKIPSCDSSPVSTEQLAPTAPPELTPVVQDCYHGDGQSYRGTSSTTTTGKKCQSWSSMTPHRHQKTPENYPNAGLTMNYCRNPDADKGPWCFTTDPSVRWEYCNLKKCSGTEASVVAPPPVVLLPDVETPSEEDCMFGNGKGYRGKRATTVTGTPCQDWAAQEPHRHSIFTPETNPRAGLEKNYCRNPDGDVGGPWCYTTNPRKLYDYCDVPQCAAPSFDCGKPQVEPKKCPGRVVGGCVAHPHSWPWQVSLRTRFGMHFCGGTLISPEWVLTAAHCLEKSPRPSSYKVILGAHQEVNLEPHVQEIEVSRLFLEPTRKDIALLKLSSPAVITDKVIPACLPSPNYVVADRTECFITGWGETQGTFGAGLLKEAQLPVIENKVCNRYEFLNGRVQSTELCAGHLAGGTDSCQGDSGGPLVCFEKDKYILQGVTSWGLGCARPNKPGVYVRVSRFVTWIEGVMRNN

Compound	IC50
CC(C)C[C@H](NS(=O)(=O)c1ccccc1)C(=O)N[C@H](C=O)CCCNC(=N)N [Compound No. 13, Benzenesulfonyl-L-leucyl-L-argininal hydrochloride]	23.9 µM
CCCC(=O)N[C@@H](CC(C)C)C(=O)N[C@H](C=O)CCCNC(=N)N [Compound No. 1, n-Butanoyl-L-leucyl-L-argininal hydrochloride]	37.8 µM
Cc1ccc(C(=O)N[C@@H](CC(C)C)C(=O)N[C@H](C=O)CCCNC(=N)N)cc1 [Compound No. 10, p-Methylbenzoyl-L-leucyl-L-argininal hydrochloride]	32.9 µM
COc1ccc(C(=O)N[C@@H](CC(C)C)C(=O)N[C@H](C=O)CCCNC(=N)N)cc1 [Compound No. 11, p-Methoxybenzoyl-L-leucyl-L-argininal hydrochloride]	39.1 µM
CCC(CC)C(=O)N[C@@H](CC(C)C)C(=O)N[C@H](C=O)CCCNC(=N)N [Compound No. 2, 2-Ethylbutanoly-L-leucyl-L-argininal hydrochloride]	81.2 µM
CC(=O)N[C@@H](CC(C)C)C(=O)N[C@@H](CC(C)C)C(=O)N[C@H](C=O)CCCNC(=N)N [Leupeptin, acetyl or propionyl-L-leucyl-L-leucyl-L-argininal]	11 µM
CC(C)C[C@H](NC(=O)OCc1ccccc1)C(=O)N[C@H](C=O)CCCNC(=N)N [Compound No. 25, Benzyloxycarbonyl-L-leucyl-L-argininal hydrochloride]	33.9 µM
Cc1ccc(S(=O)(=O)N[C@@H](CC(C)C)C(=O)N[C@H](C=O)CCCNC(=N)N)cc1 [Compound No. 14, p-Toluenesulfonyl-L-leucyl-L-argininal hydrochloride]	14.5 µM
CC(C)C[C@H](NC(=O)[C@@H]1CCC(=O)N1)C(=O)N[C@H](C=O)CCCNC(=N)N [Compound No. 31, L-Pyroglutamyl-L-leucyl-L-argininal hydrochloride] ([pGlu]-Leu-Arg-aldehyde)	1.19 µM
CCCCCC(=O)N[C@@H](CC(C)C)C(=O)N[C@H](C=O)CCCNC(=N)N [Compound No. 3, n-Hexanoly-L-leucyl-L-argininal hydrochloride]	16.8 µM
CC(C)C[C@H](NC(=O)c1ccco1)C(=O)N[C@H](C=O)CCCNC(=N)N [Compound No. 26, Furan-2-carbonyl-L-leucyl-L-argininal hydrochloride]	90.3 µM
CC(C)C[C@H](NS(=O)(=O)c1cccc2ccccc12)C(=O)N[C@H](C=O)CCCNC(=N)N [Compound No. 20, 1-Naphthalenesulfonyl-L-leucyl-L-argininal hydrochloride]	28.2 µM
CC(C)C[C@H](NC(=O)Cc1ccccc1O)C(=O)N[C@H](C=O)CCCNC(=N)N [Compound No. 18, o-Hydroxyphenylacetyl-L-leucyl-L-argininal hydrochloride]	12.9 µM
CC(C)CC(=O)N[C@@H](CC(C)C)C(=O)N[C@H](C=O)CCCNC(=N)N [Compound No. 4, 3-Methylbutanoyl-L-leucyl-L-argininal hydrochloride]	21.4 µM
CC(C)C[C@H](NC(=O)c1ccc([N+](=O)[O-])cc1)C(=O)N[C@H](C=O)CCCNC(=N)N [Compound No. 12, p-Nitrobenzoyl-L-leucyl-L-argininal hydrochloride]	30.6 µM
CC(C)C[C@H](NC(=O)Cc1ccccc1[N+](=O)[O-])C(=O)N[C@H](C=O)CCCNC(=N)N [Compound No. 16, o-Nitrophenylacetyl-L-leucyl-L-argininal hydrochloride]	42.5 µM
CC(C)C[C@H](NC(=O)Cc1ccccc1)C(=O)N[C@H](C=O)CCCNC(=N)N [Compound No. 15, Phenylacetyl-L-leucyl-L-argininal hydrochloride]	14.6 µM
CC(C)C[C@H](NC(=O)c1ccccc1)C(=O)N[C@H](C=O)CCCNC(=N)N [Compound No. 8, Benzoyl-L-leucyl-L-argininal hydrochloride]	44.4 µM
CCCCCCCCC(=O)N[C@@H](CC(C)C)C(=O)N[C@H](C=O)CCCNC(=N)N [Compound No. 5, n-Nonanoyl-L-leucyl-L-argininal hydrochloride]	2.68 µM
CC(C)C[C@H](NC(=O)[C@@H]1CCC(=O)N1C(=O)OCc1ccccc1)C(=O)N[C@H](C=O)CCCNC(=N)N [Compound No. 30, N-Benzyloxycarbonyl-L-pyroglutamyl-L-leucyl-L-argininal hydrochloride]	0.958 µM
CC(C)C[C@H](NC(=O)c1cccc(Cl)c1)C(=O)N[C@H](C=O)CCCNC(=N)N [Compound No. 9, m-Chlorobenzoyl-L-leucyl-L-argininal hydrochloride]	13.4 µM
CC(C)C[C@H](NC(=O)C1CCCCC1)C(=O)N[C@H](C=O)CCCNC(=N)N [Compound No. 6, Cyclohexanecarbonyl-L-leucyl-L-argininal hydrochloride]	56 µM
CC(C)C[C@H](NC(=O)[C@H](Cc1ccccc1)NC(=O)OCc1ccccc1)C(=O)N[C@H](C=O)CCCN=C(N)N [Compound No. 36, N-Benzyloxycarbonyl-L-phenylalanyl-L-leucyl-L-argininal hydrochloride] (Cbz-Phe-Leu-Arg-aldehyde)	1.24 µM
CC(C)C[C@H](NC(=O)C(O)c1ccccc1)C(=O)N[C@H](C=O)CCCNC(=N)N (mixture of isomers) [Compound No. 35, DL-Mandelyl-L-leucyl-L-argininal hydrochloride]	3.17 µM
CC(C)C[C@H](NS(=O)(=O)c1cccc2c(N(C)C)cccc12)C(=O)N[C@H](C=O)CCCNC(=N)N [Compound No. 21, 5-Dimethylamino-1-naphthalenesulfonyl-L-leucyl-L-argininal 2 hydrochloride]	24.4 µM
CC(C)C[C@H](NC(=O)Cc1ccc([N+](=O)[O-])cc1)C(=O)N[C@H](C=O)CCCNC(=N)N [Compound No. 17, p-Nitrophenylacetyl-L-leucyl-L-argininal hydrochloride]	3.61 µM

same assay, conditions: read-out: IC50 Plasmin; fibrinogen substrate, plasminogen from human serum + streptokinase, pH 7.2, 37° C., 20 minutes

Compound	IC50
CC(C)C[C@H](NC(=O)c1ccncc1)C(=O)N[C@H](C=O)CCCNC(=N)N [Compound No. 22, Isonicotinyl-L-leucyl-L-argininal hydrochloride]	88.7 µM
CC(C)C[C@H](NC(=O)c1cccnc1)C(=O)N[C@H](C=O)CCCNC(=N)N [Compound No. 23, Nicotinyl-L-leucyl-L-argininal hydrochloride]	23.9 µM
CC(C)C[C@H](NC(=O)[C@@H](O)[C@@H](Cc1ccccc1)NC(=O)OCc1ccccc1)C(=O)N[C@H](C=O)CCCNC(=N)N [Compound No. 37, N-Benzyloxycarbonyl-(2S,3R)-3-amino-2-hydroxy-4-phenylbutanoyl-L-leucyl-L-argininal hydrochloride]	2.4 µM

system: chickens with spontaneous muscular dystrophy; experiment: not given; settings: Libby et al., Science 1978; cited from earlier work

Compound	inhibition of atrophy of the muscles
CC(=O)N[C@@H](CC(C)C)C(=O)N[C@@H](CC(C)C)C(=O)N[C@H](C=O)CCCNC(=N)N [Leupeptin, acetyl or propionyl-L-leucyl-L-leucyl-L-argininal]	inhibits the atrophy of the muscles

system: fibrinolytic system; experiment: not given; settings: cited from earlier work

Compound	pharmacological action on the fibrinolytic system
CC(=O)N[C@@H](CC(C)C)C(=O)N[C@@H](CC(C)C)C(=O)N[C@H](C=O)CCCNC(=N)N [Leupeptin, acetyl or propionyl-L-leucyl-L-leucyl-L-argininal]	a pharmacological action on the fibrinolytic system
